Patent US20170050957A1, “4-AMINO-6-(HETEROCYCLIC)PICOLINATES AND 6-AMINO-2-(HETEROCYCLIC)PYRIMIDINE-4-CARBOXYLATES AND THEIR USE AS HERBICIDES” (Dow AgroSciences LLC, priority 2013, published 2017)
Like-named read-outs stand apart in the source and are kept apart here.

Experiments:
[1] = tested on: Key Broadleaf Weed and Crop Species; assay: Post-emergent Test II herbicidal activity (Table 15); format: in vivo; settings: post-emergence, 336 h, 14 d; for pest or weed control at 35 g/ha: 35 g ai/ha; for pest or weed control at 70 g/ha: 70 g ai/ha; for pest or weed control at 140 g/ha: 140 g ai/ha
Method in brief: (§1)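 Visual injury rating (0 = none, 100 = complete kill) taken 14 d after treatment, relative to untreated plants. Compounds in acetone/DMSO with crop oil concentrate and Triton X-155 were track-sprayed at 187 L/ha onto seedlings at the first-second true leaf stage.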

[2] = tested on: Key Grass and Sedge Weeds as well as Grass Crops; assay: Post-emergent Test II herbicidal activity (Table 16); format: in vivo; settings: post-emergence, 336 h, 14 d; for pest or weed control at 35 g/ha: 35 g ai/ha; for pest or weed control at 70 g/ha: 70 g ai/ha; for pest or weed control at 140 g/ha: 140 g ai/ha
Method in brief: as §1

[3] = Abutilon theophrasti, velvetleaf (Abutilon theophrasti), read-out: Visual Growth Reduction (%) 14 Days After Application, ABUTH
[4] = Amaranthus retroflexus, redroot pigweed (Amaranthus retroflexus), read-out: Visual Growth Reduction (%) 14 Days After Application, AMARE
[5] = Brassica napus, oilseed rape, canola (Brassica napus), read-out: Visual Growth Reduction (%) 14 Days After Application, BRSNN
[6] = Chenopodium album, lambsquarters (Chenopodium album), read-out: Visual Growth Reduction (%) 14 Days After Application, CHEAL
[7] = Euphorbia heterophylla, wild poinsettia (Euphorbia heterophylla), read-out: Visual Growth Reduction (%) 14 Days After Application, EPHHL
[8] = Helianthus annuus, sunflower (Helianthus annuus), read-out: Visual Growth Reduction (%) 14 Days After Application, HELAN
[9] = Cyperus esculentus, yellow nutsedge (Cyperus esculentus), read-out: Visual Growth Reduction (%) 14 Days After Application, CYPES
[10] = Echinochloa crus-galli, barnyardgrass (Echinochloa crus-galli), read-out: Visual Growth Reduction (%) 14 Days After Application, ECHCG
[11] = Oryza sativa, rice (Oryza sativa), read-out: Visual Growth Reduction (%) 14 Days After Application, ORYSA
[12] = Setaria faberi, giant foxtail (Setaria faberi), read-out: Visual Growth Reduction (%) 14 Days After Application, SETFA
[13] = Triticum aestivum, wheat, spring (Triticum aestivum), read-out: Visual Growth Reduction (%) 14 Days After Application, TRZAS
[14] = Zea mays, maize, corn (Zea mays), read-out: Visual Growth Reduction (%) 14 Days After Application, ZEAMX

Q: What does the source list for `Nc1cc(-c2cc3[nH]ccc3cc2F)nc(C(=O)O)c1Cl` [Compound 1.26]?
A: pest or weed control at 35 g/ha [1, 3]: 0 to 29%; pest or weed control at 70 g/ha [1, 3]: 0 to 29%; pest or weed control at 140 g/ha [1, 3]: 0 to 29%; pest or weed control at 35 g/ha [1, 4]: 75 to 84%; pest or weed control at 70 g/ha [1, 4]: 85 to 94%; pest or weed control at 140 g/ha [1, 4]: 95 to 100%; pest or weed control at 35 g/ha [1, 5]: 85 to 94%; pest or weed control at 70 g/ha [1, 5]: 95 to 100%; pest or weed control at 140 g/ha [1, 5]: 95 to 100%; pest or weed control at 35 g/ha [1, 6]: 0 to 29%; pest or weed control at 70 g/ha [1, 6]: 30 to 44%; pest or weed control at 140 g/ha [1, 6]: 30 to 44%; pest or weed control at 35 g/ha [1, 7]: 0 to 29%; pest or weed control at 70 g/ha [1, 7]: 30 to 44%; pest or weed control at 140 g/ha [1, 7]: 45 to 59%; pest or weed control at 35 g/ha [1, 8]: 0 to 29%; pest or weed control at 70 g/ha [1, 8]: 0 to 29%; pest or weed control at 140 g/ha [1, 8]: 0 to 29%; pest or weed control at 35 g/ha [2, 9]: 0 to 29%; pest or weed control at 70 g/ha [2, 9]: 0 to 29%; pest or weed control at 140 g/ha [2, 9]: 0 to 29%; pest or weed control at 35 g/ha [2, 10]: 0 to 29%; pest or weed control at 70 g/ha [2, 10]: 0 to 29%; pest or weed control at 140 g/ha [2, 10]: 0 to 29%; pest or weed control at 35 g/ha [2, 11]: 0 to 29%; pest or weed control at 70 g/ha [2, 11]: 0 to 29%; pest or weed control at 140 g/ha [2, 11]: 0 to 29%; pest or weed control at 35 g/ha [2, 12]: 0 to 29%; pest or weed control at 70 g/ha [2, 12]: 0 to 29%; pest or weed control at 140 g/ha [2, 12]: 0 to 29%; pest or weed control at 35 g/ha [2, 13]: 0 to 29%; pest or weed control at 70 g/ha [2, 13]: 0 to 29%; pest or weed control at 140 g/ha [2, 13]: 0 to 29%; pest or weed control at 35 g/ha [2, 14]: 0 to 29%; pest or weed control at 70 g/ha [2, 14]: 0 to 29%; pest or weed control at 140 g/ha [2, 14]: 0 to 29%

Q: Which results are given for `COC(=O)c1nc(-c2ccc3cc[nH]c3c2F)nc(N)c1OC` [Compound 1.34]?
A: pest or weed control at 35 g/ha [1, 3]: 0 to 29%; pest or weed control at 70 g/ha [1, 3]: 0 to 29%; pest or weed control at 140 g/ha [1, 3]: 0 to 29%; pest or weed control at 35 g/ha [1, 4]: 0 to 29%; pest or weed control at 70 g/ha [1, 4]: 0 to 29%; pest or weed control at 140 g/ha [1, 4]: 30 to 44%; pest or weed control at 35 g/ha [1, 5]: 75 to 84%; pest or weed control at 70 g/ha [1, 5]: 85 to 94%; pest or weed control at 140 g/ha [1, 5]: 95 to 100%; pest or weed control at 35 g/ha [1, 6]: 0 to 29%; pest or weed control at 70 g/ha [1, 6]: 45 to 59%; pest or weed control at 140 g/ha [1, 6]: 60 to 74%; pest or weed control at 35 g/ha [1, 7]: 0 to 29%; pest or weed control at 70 g/ha [1, 7]: 0 to 29%; pest or weed control at 140 g/ha [1, 7]: 60 to 74%; pest or weed control at 35 g/ha [1, 8]: 85 to 94%; pest or weed control at 70 g/ha [1, 8]: 95 to 100%; pest or weed control at 140 g/ha [1, 8]: 95 to 100%; pest or weed control at 35 g/ha [2, 9]: 0 to 29%; pest or weed control at 70 g/ha [2, 9]: 0 to 29%; pest or weed control at 140 g/ha [2, 9]: 0 to 29%; pest or weed control at 35 g/ha [2, 10]: 0 to 29%; pest or weed control at 70 g/ha [2, 10]: 0 to 29%; pest or weed control at 140 g/ha [2, 10]: 0 to 29%; pest or weed control at 35 g/ha [2, 11]: 0 to 29%; pest or weed control at 70 g/ha [2, 11]: 0 to 29%; pest or weed control at 140 g/ha [2, 11]: 0 to 29%; pest or weed control at 35 g/ha [2, 12]: 0 to 29%; pest or weed control at 70 g/ha [2, 12]: 0 to 29%; pest or weed control at 140 g/ha [2, 12]: 60 to 74%; pest or weed control at 35 g/ha [2, 13]: 0 to 29%; pest or weed control at 70 g/ha [2, 13]: 0 to 29%; pest or weed control at 140 g/ha [2, 13]: 30 to 44%; pest or weed control at 35 g/ha [2, 14]: 0 to 29%; pest or weed control at 70 g/ha [2, 14]: 0 to 29%; pest or weed control at 140 g/ha [2, 14]: 0 to 29%
